In patent publication US20250302982A1, “METHODS OF TREATING CANCER WITH ANTI-TISSUE FACTOR ANTIBODY-DRUG CONJUGATES” (Genmab A/S, priority 2022, published 2025):
“Also recorded” adds a separate entry of the source. Marks after values point to notes of the source that are not given here.

What was measured:
[1] = biological target: T1, human TF (Homo sapiens, UniProt P13726); assay: Tisotumab binding to HNSCC cell lines by flow cytometry; conditions: 2 μg/ml
T1 construct: Three VU-SCC cells lines with various levels of TF expression were selected for additional analysis; endogenous in cells; host or cells: HNSCC cell lines VU-SCC-OE, VU-SCC-078, VU-SCC-120
T1 sequence (P13726 33-295): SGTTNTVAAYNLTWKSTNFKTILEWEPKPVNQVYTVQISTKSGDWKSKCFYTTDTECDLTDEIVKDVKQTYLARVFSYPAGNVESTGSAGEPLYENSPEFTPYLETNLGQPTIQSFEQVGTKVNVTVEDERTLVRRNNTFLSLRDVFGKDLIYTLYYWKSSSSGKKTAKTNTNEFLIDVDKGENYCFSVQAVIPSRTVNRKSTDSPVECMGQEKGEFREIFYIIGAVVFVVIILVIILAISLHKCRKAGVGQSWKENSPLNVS
Experimental: Methods: Three VU-SCC cells lines with various levels of TF expression were selected for additional analysis. It was determined that VU-SCC-OE had TF expression levels similar to that of non-cancerous fibroblasts and VU-SCC-078 had slightly higher expression levels of TF compared to VU-SCC-OE; VU-SCC-120 was a cell line with high levels of TF expression (FIG. 2). These three cell lines were cultured and subsequently assayed for tisotumab binding. Cells were incubated with the anti-human TF monoclonal antibody, (tisotumab, 2 μg/ml, IgG1-1015-011, Genmab) or an isotype control IgG (Genmab IgG1-b12). The PE-conjugated goat (Fab′)2 anti-human IgG secondary antibody (1:50 Jackson, 109-116-098) was applied and the cells were analyzed by flow cytometry.

[2] = tested on: FaDu xenograft; assay: TV combined with chemoradiotherapy (CRT) in FaDu xenograft mice; assay type: in vivo, nude mice
Experimental: (§1) Methods: FaDu xenografts were established in nude mice (5-6 mice/group) as described above in Example 3.
(§2) FaDu xenograft mice were treated 24 hour hours prior to CRT (CRT was administered on day 1 and 11) with TV or the isotype control, which was administered on day 0 and 10. VU-SCC-OE xenograft mice were treated 24 hour hours prior to CRT (CRT was administered on day 1 and 8) with TV or the isotype (IgG1-vedotin) control, which was administered on day 0 and 7. For mice receiving CRT, whole body irradiation (2 Gy; Varian TrueBeam™ Linear Accelerator) was applied approximately 4 hours after administering cisplatin (CDDP, 3 mg/kg). Tumor volume was measured as described above, and statistical analysis was performed on the collected data as also described above.

[3] = tested on: HNSCC cell lines; assay: Cell Titer-Blue cytotoxicity assay in HNSCC cell lines; assay type: cell-based, human
Experimental: Methods: Cells were seeded in 96-wells plates on day 0 (1000-6000 cells/well, depending on the cell line). After overnight culturing, tisotumab vedotin or the negative control isotype IgG1-vedotin (IgG1-c-b12-vc monomethyl auristatin E (MMAE)) was added in increasing concentrations to the different wells. The relative number of viable cells was assessed on day 5 using a Cell Titer-Blue assay (Promega, Leiden, The Netherlands, G8080) according to the protocol from the manufacturer and fluorescence was measured using the GloMax®-Multi Detection System (Promega). Staurosporine (5 μM, Sigma, UCN-01 or 56942) was used as a positive control to induce maximum cell death, and untreated cells were also used as a negative control. After subtraction of background (medium only), the percentages of viable cells were calculated using the following formula: % viable cells=((mean fluorescence test samples−mean fluorescence staurosporine sample)/(mean fluorescence untreated sample−mean fluorescence staurosporine sample))*100. Graphs represent non-linear regression curves of log-transformed antibody concentrations, using Graphpad Prism version 9.1.0 (GraphPad Software, San Diego, CA).

[4] = tested on: VU-SCC-OE xenograft; assay: TV combined with chemoradiotherapy (CRT) in VU-SCC-OE xenograft mice; assay type: in vivo, nude mice
Experimental: as §1, §2

[5] = tested on: FaDu xenograft; assay: TV combined with cisplatin (CDDP) in FaDu xenograft mice; conditions: 2 mg/kg TV + cisplatin 3 mg/kg ip
Experimental: FaDu xenografts were established in nude mice (6-7 mice/group) as described above in Example 4. Mice were treated with the antibodies on day 0 and 7 and/or on day 1 and 8 with 3 mg/kg intraperitoneal cisplatin (CDDP) chemotherapy (CT) (FIG. 6). TV or control IgG-vedotin (IgG1-V) was administered at day 0. For mice subjected to chemotherapy, cisplatin was administered at day 1. A minimum of 8 tumors were included per group.

[6] = tested on: FaDu xenograft; assay: TV combined with radiotherapy (RT) in FaDu xenograft mice; assay type: in vivo, nude mice; conditions: for Median survival [days]: end of experiment day 112; for Range Survival [days]: end of the experiment is day 112
Experimental: FaDu xenografts were established in nude mice as described in Example 3. […] For mice subjected to RT, 2 Gy whole body radiotherapy was administered at day 1.

[7] = tested on: VU-SCC-OE tumor; assay: TV monotherapy in VU-SCC-OE xenograft mice; assay type: in vivo, nude mice; conditions: days 0, 7, 14
Experimental: (§3) Nude mice (female, athymic nu/nu, age 6-8 weeks old, from Envigo, Horst, The Netherlands), were kept in filter top cages under sterile conditions under standardized environmental conditions. The HNSCC cell lines FaDu, VU-SCC-OE or VU-SCC-040 were subcutaneously injected in both flanks (2×10^6 cells per flank). The implanted tumor cells were allowed to grow to an average size of 100 mm^3 (range 40-180 mm^3). The mice were treated intraperitoneally (ip) with tisotumab vedotin or an isotype control (IgG1-b12-c-vcMMAE) (FIG. 6). […] Tumor volume was measured with electronic calipers (V=(L×W×H)×0.5 where V=volume, L=length, W=width, H=height) and calculated as mean of tumor(s) per mouse. Tumors with a start volume below 40 mm^3 and no signs of growth were excluded from the analysis. Tumors from un-treated tumor bearing mice were harvested and embedded in paraffin for analysis of TF expression using IHC analysis as described in the preceding examples. TF expression was detected using anti-CD142-FITC or isotype control (IgG1-FITC) with rabbit anti-FITC (Zymed) and BrightVision Immunohistochemistry (IHC) Detection Kit and visualized with DAB counterstained with Haematoxylin.
(§4) Nude mice were injected with HNSCC cells and xenografts were established as described above in Example 3A. […] Tumor volume was measured as described in the preceding example. Data analysis was performed using Graph Pad Prism version 9.1.0 (GraphPad Software, San Diego, CA). Data are depicted as mean±SD or mean±SEM. Statistical differences were determined using a Kruskal-Wallis test with multiple comparison tests (>2 groups). Improved overall survival was assessed using the Kaplan-Meier method and differences between the groups was assessed by the Log-rank test (Mantel-Cox). p-values<0.05 were considered significant (*p<0.05, **p<0.01,***p<0.001, **** p<0.0001, ns=not significant).

[8] = tested on: VU-SCC-040 tumor; assay: TV monotherapy in VU-SCC-040 xenograft mice; assay type: in vivo, nude mice
Experimental: as §3, §4

[9] = tested on: FaDu tumor; assay: TV monotherapy in FaDu xenograft mice; assay type: in vivo, nude mice
Experimental: as §3
Nude mice were injected with HNSCC cells and xenografts were established as described above in Example 3A. Xenograft mice (5 mice with 8-10 tumors per group) were treated with PBS, 2 and 4 mg/kg tisotumab vedotin, or 4 mg/kg isotype IgG1-vedotin on days 0, 7 and 13 (FaDu) or on days 0, 7 and 14 (VU-SCC-OE and VU-SCC-040) (FIG. 6). Tumor volume was measured as described in the preceding example. Data analysis was performed using Graph Pad Prism version 9.1.0 (GraphPad Software, San Diego, CA). Data are depicted as mean±SD or mean±SEM. Statistical differences were determined using a Kruskal-Wallis test with multiple comparison tests (>2 groups). Improved overall survival was assessed using the Kaplan-Meier method and differences between the groups was assessed by the Log-rank test (Mantel-Cox). p-values<0.05 were considered significant (*p<0.05, **p<0.01,***p<0.001, **** p<0.0001, ns=not significant).

[10] = tested on: primary keratinocytes; assay: Cell Titer-Blue cytotoxicity assay in primary keratinocytes; assay type: cell-based, human; conditions: low TF expression
Experimental: Keratinocytes were cultured in serum-free Keratinocyte medium (KSFM, Gibco, 17005-034) supplemented with 0.1% bovine serum albumin (BSA, Biovision), recombinant epidermal growth factor (EGF) (Gibco, 10450-013) and bovine pituitary extract (Gibco, 13028-014). HNSCC cell lines were cultured in Dulbecco's Modified Eagle's Medium (DMEM), containing 5% fetal bovine serum (FBS, Gibco, 10270-106) and 2 mM L-glutamine (Lonza, BE-17-605E). The FaDu cell line was purchased from the ATCC. […]
Methods: Cells were seeded in 96-wells plates on day 0 (1000-6000 cells/well, depending on the cell line). […] The relative number of viable cells was assessed on day 5 using a Cell Titer-Blue assay (Promega, Leiden, The Netherlands, G8080) according to the protocol from the manufacturer and fluorescence was measured using the GloMax®-Multi Detection System (Promega). […] After subtraction of background (medium only), the percentages of viable cells were calculated using the following formula: % viable cells=((mean fluorescence test samples−mean fluorescence staurosporine sample)/(mean fluorescence untreated sample−mean fluorescence staurosporine sample))*100. […]

tisotumab
binding to HNSCC cells (flow cytometry) ([1]; VU-SCC-078, intermediate expression of TF): bound robustly
binding to HNSCC cells (flow cytometry) ([1]; VU-SCC-120, high levels of TF): bound robustly
binding to HNSCC cells (flow cytometry) ([1]; VU-SCC-OE, lower levels of TF expression): still capable of binding

tisotumab vedotin
overall survival (Kaplan-Meier) compared to control groups, CRT or TV alone ([2]; 2 mg/kg TV + CRT): significant increase in overall survival
tumor size at day 9 after first treatment compared to IgG1-vedotin + CRT ([2]; 2 mg/kg TV + CRT): significant reduction in tumor size
tumor growth compared to IgG1-vedotin control group ([2]; 2 mg/kg TV alone, day 0 and 10): reduced tumor growth
mean IC50 values ([3]; HNSCC cell lines with intermediate and high levels of TF expression): 2.5 to 7 ng/mL
average IC50 ([3]; VU-SCC-OE, low TF expression): above 0.025 μg/ml
killing of HNSCC cell lines (percent viable cells) ([3]; increasing concentrations, viable cells on day 5): efficient and dose-dependent killing
survival compared to control groups or CRT or TV alone ([4]; 2 mg/kg TV + CRT): significantly prolonged survival
tumor regression ([4]; 2 mg/kg TV + CRT): induced tumor regression
tumor growth compared to control groups (PBS and IgG1-vedotin) ([4]; 2 mg/kg TV alone): some inhibition of tumor growth
survival compared to either treatment alone [5]: improved survival
tumor load on day 7 compared to either treatment alone [5]: significantly reduced tumor load
survival compared to control treatment (PBS or IgG-V) ([6]; 1 mg/kg TV alone): did not prolong survival
survival time compared to RT alone ([6]; 2 mg/kg TV + RT, p<0.001): significantly better survival time
tumor volume on day 7 ([6]; TV 1 mg/kg day 0 + RT 2 Gy day 1): Decreased tumor volume
tumor burden on day 7 ([6]; TV 2 mg/kg alone, day 0): lowest tumor burdens
tumor burden / tumor volume on day 7 ([6]; TV 2 mg/kg day 0 + RT 2 Gy day 1, listed as TV): lowest tumor burdens; also recorded: Decreased tumor volume
Median survival ([6]; hTV 1 mg/kg): 10 days
Range Survival ([6]; hTV 1 mg/kg): 8 to 16 days
Median survival ([6]; hTV 1 mg/kg + RT (2 Gy)): 21 days
Range Survival ([6]; hTV 1 mg/kg + RT (2 Gy)): 14 to 21 days
Median survival ([6]; hTV 2 mg/kg): 69.5 days
Median survival [days] ([6]; hTV 2 mg/kg + RT (2 Gy), listed as TV): median not reached
Median survival [days] ([6]; hTV 2 mg/kg + RT (2 Gy), listed as hTV): Undefined
Range Survival [days] ([6]; hTV 2 mg/kg + RT (2 Gy)): 21-112* days
Range Survival [days] ([6]; hTV 2 mg/kg): 28-112* days
tumor growth ([7]; 1 mg/kg): rapid tumor growth
tumor growth ([7]; 2 mg/kg): inhibition of tumor growth
tumor growth ([7]; 4 mg/kg TV): inhibition of tumor growth
tumor growth compared to control groups ([8]; 1 mg/kg monotherapy): did not inhibit tumor growth
tumor growth compared to control groups ([8]; 2 mg/kg): inhibition of tumor growth was observed
tumor growth compared to control groups ([8]; 4 mg/kg): inhibition of tumor growth was observed
tumor growth at day 7 compared to isotype control ([8]; 4 mg/kg, after 1 treatment): reduced tumor growth
tumor growth compared to control groups ([9]; 2 mg/kg ip, days 0, 7, 13): significant inhibition of tumor growth
tumor regression ([9]; 2 mg/kg ip, days 0, 7, 13): tumor regression was observed after 3 treatments
time after start of initial treatment from which tumor regrowth was visible ([9]; 2 mg/kg, last treatment on day 13): ≥ 30 days
tumor regression ([9]; 4 mg/kg ip, after the first treatment): significant and persistent tumor regression
recurrence of tumor growth until end of experiment (day 76) ([9]; 4 mg/kg ip, days 0, 7, 13): without recurrence of tumor growth
time to complete tumor regression in all mice ([9]; 4 mg/kg ip, days 0, 7, 13): ≤ 30 days
tumor size on day 7 compared to isotype control or PBS ([9]; tisotumab vedotin treatment groups, day 7): considerably lower tumor size
average IC50 [10]: above 0.025 μg/ml
